# Data as given in patent publication EP4715056A1, “BIO-BASED TRANS-ACONITATE, PREPARATION METHOD THEREFOR AND USE THEREOF” (Qingdao Institute of Bioenergy and Bioprocess Technology, …, priority 2023, dated 2024).
# Read-outs that look alike come from different tables or passages of the source.
# Experiments:
# [1] = Hardness (Shore hardness tester, GB/T 531-2008); format: physicochemical; conditions: 2 parts oxidized polyethylene wax, 5 parts octyltin maleate
# Protocol: The aconitates and tributyl citrate prepared in the above examples and comparative examples were added as plasticizers to PVC resin to obtain PVC plastics. […] The above raw materials were mixed and prepared using the same mixing process to obtain finished PVC products. The performance tests were performed on different plasticizers and the obtained PVC finished products in the above examples and comparative examples. […] Three points were selected for each group of samples, each point was tested once, and a median value was taken. • 2. […] Compatibility: tests were performed using a water value method. Since water molecules are polar, the compatibility between the plasticizer and water can characterize the compatibility between the plasticizer and polar materials (PVC, PLA, and nitrile rubber). When a certain plasticizer has good compatibility with water, it has good compatibility with PVC, and vice versa. In the experiment, 2.5 g of plasticizer and 25 g of acetone were added to a beaker, titrated with a burette filled with deionized water, and agitated while titrating until turbidity appears, and the volume of deionized water consumed was recorded. • 4. Glass transition temperature (Tg): the glass transition temperature was tested using a dynamic mechanical analyzer. Test conditions: nitrogen was taken as the carrier gas, at a test temperature range of -40 to 80°C, a heating rate of 3°C/min, and a frequency of 1 Hz.
# [2] = Compatibility (water value method); format: physicochemical
# Protocol: (§1) The aconitates and tributyl citrate prepared in the above examples and comparative examples were added as plasticizers to PVC resin to obtain PVC plastics. The PVC plastics include 100 parts of PVC resin, 35 parts of plasticizer, 2 parts of oxidized polyethylene wax, and 5 parts of octyltin maleate. The above raw materials were mixed and prepared using the same mixing process to obtain finished PVC products. The performance tests were performed on different plasticizers and the obtained PVC finished products in the above examples and comparative examples. […] Three points were selected for each group of samples, each point was tested once, and a median value was taken. • 2. […] Compatibility: tests were performed using a water value method. Since water molecules are polar, the compatibility between the plasticizer and water can characterize the compatibility between the plasticizer and polar materials (PVC, PLA, and nitrile rubber). When a certain plasticizer has good compatibility with water, it has good compatibility with PVC, and vice versa. In the experiment, 2.5 g of plasticizer and 25 g of acetone were added to a beaker, titrated with a burette filled with deionized water, and agitated while titrating until turbidity appears, and the volume of deionized water consumed was recorded. • 4. Glass transition temperature (Tg): the glass transition temperature was tested using a dynamic mechanical analyzer. Test conditions: nitrogen was taken as the carrier gas, at a test temperature range of -40 to 80°C, a heating rate of 3°C/min, and a frequency of 1 Hz.
# [3] = Volatility loss rate (activated carbon method, HG/T 4458-2012); format: physicochemical; conditions: PVC composite with 30 parts plasticizer; 70°C for 24 h
# Protocol: (§2) The above plasticizer is the mixed aconitates prepared in Example 37, and composite materials are prepared according to the above weight ratio and preparation method respectively. At the same time, dioctyl phthalate, tributyl citrate, tributyl aconitate and triisooctyl aconitate are respectively selected as plasticizers to prepare composite materials according to the above weight ratio and preparation method. The test method is the same as that in Test 2 except for the following: • 1. Volatility loss rate: tests were performed in accordance with HG/T 4458-2012 Plastics - Determination of Plasticizer Loss by Activated Carbon Method at a test temperature of 70°C for 24 h. • 2. Water extraction rate: tests were performed in accordance with the standard ISO 175-2011 Test Method for Determination of Immersion Effects of Plastics in Liquid Chemicals at room temperature for 72 h, with deionized water as the extraction solvent. • 3. Ethanol extraction rate: tests were performed in accordance with the standard ISO 175-2011 Test Method for Determination of Immersion Effects of Plastics in Liquid Chemicals at room temperature for 72 h, with ethanol as the extraction solvent. • 4. Petroleum ether extraction rate: tests were performed in accordance with the standard ISO 175-2011 Test Method for Determination of Immersion Effects of Plastics in Liquid Chemicals at room temperature for 72 h, with petroleum ether as the extraction solvent. • 5. Migration rate: tests were performed in accordance with HG/T 4458-2012 Determination of Plasticizer Migration in Plastics at a test temperature of 50°C for 48 h. The materials of absorbent sheets are polyethylene (PE) without additives and standard natural rubber (NR).
# [4] = Water extraction rate (ISO 175-2011); format: physicochemical; conditions: PVC composite with 30 parts plasticizer; room temperature, 72 h, deionized water
# Protocol: as §2
# [5] = Ethanol extraction rate (ISO 175-2011); format: physicochemical; conditions: PVC composite with 30 parts plasticizer, room temperature, 72 h
# Protocol: as §2
# [6] = Petroleum ether extraction rate (ISO 175-2011); format: physicochemical; conditions: PVC composite with 30 parts plasticizer, room temperature, 72 h
# Protocol: as §2
# [7] = Plasticizer migration rate to PE (HG/T 4458-2012); format: physicochemical; conditions: PVC composite with 30 parts plasticizer; 50°C for 48 h
# Protocol: as §2
# [8] = Plasticizer migration rate to NR (HG/T 4458-2012); format: physicochemical; conditions: PVC composite with 30 parts plasticizer; 50°C for 48 h
# Protocol: as §2
# [9] = Tensile properties (GB/T 1040-2006): tensile modulus at 100%, elongation at break, elastic modulus; format: physicochemical; conditions: PVC composite with 30 parts plasticizer, Table 9
# [10] = Glass transition temperature (dynamic mechanical analyzer); format: physicochemical; conditions: PVC composite with 30 parts plasticizer, Table 10
# [11] = Acid value (KOH titration); format: physicochemical; conditions: aconitate/citrate products, Table 4
# Protocol: The aconitates and citrates prepared in the above examples and comparative examples were tested for acid value, purity, chromaticity, yield, triester conversion rate, and water content. […] The mixture was neutralized with 0.02 mol·L^-1 potassium hydroxide aqueous solution until a faint pink color appears, and the consumed volume Vo was recorded. 1 g of the sample (accurate to 0.01 g) was weighed using a ground-neck conical flask, then one portion of the above neutralized solution was added. After the sample was completely dissolved, the sample was titrated with 0.02 mol·L^-1 potassium hydroxide-ethanol standard titration solution (the titration should be completed within 30 seconds) until a faint pink color appeared and persisted for 5 seconds without fading, which was considered as an end point. The consumed volume V was recorded. […] Chromatographic column: C18 column; injector: 10 µL micro-syringe; solvent: acetonitrile (HPLC grade); acquisition time: 15 min; mobile phase: 80% acetonitrile (HPLC grade) and 20% deionized water; injection volume: 1 µL; wavelength: 230 nm.
# [12] = Chromaticity (platinum-cobalt colorimetry); format: physicochemical; conditions: aconitate/citrate products, Table 4; colour comparison at 25°C
# Protocol: 3. Chromaticity: preparation of 500# platinum-cobalt colorimetric standard stock solution: 1.2450 g of potassium chloroplatinate and 1.0000 g of cobalt chloride were weighed, with an accuracy of 0.0002 g, the mixture was dissolved in 100 mL of hydrochloric acid, and then diluted to 1000 mL with distilled water. This solution is just the 500# colorimetric standard comparison solution.
# Preparation of colorimetric standards below 500#: different amounts of the 500# stock solution was prepared, and diluted with distilled water to the volume of a colorimetric tube to prepare colorimetric standard solutions of any number. The calculation formula is as follows: V = (N×V1)/500 [formula]
# In the formula, V is the volume of the 500# standard stock solution taken to prepare the N# colorimetric standard solution, in mL; V1 is the volume of the colorimetric tube used, in mL; and N is the number of the colorimetric standard solution to be prepared.
# Color comparison determination was performed at 25°C.
# [13] = Water content (Karl Fischer moisture meter); format: physicochemical; conditions: aconitate/citrate products, Table 4
# From the text: 6. Water content: a Karl Fischer moisture meter is used to test the water content (retained to two decimal places).
# [14] = Residual amounts of fat-soluble and water-soluble pigments (HPLC); format: physicochemical; conditions: aconitate/citrate products, Table 4
# Protocol: 7. Residual amounts of fat-soluble pigments and water-soluble pigments: • a high-performance liquid chromatograph (HPLC) was used, and the instrument sensitivity and stability of the detector should comply with the provisions of GB/T 16631-2008. Chromatographic column: C18 column; injector: 10 µL micro-syringe; solvent: acetonitrile (HPLC grade); acquisition time: 15 min; mobile phase: 80% acetonitrile (HPLC grade) and 20% deionized water; injection volume: 1 µL; wavelength: 230 nm.
# Test: the instrument was adjusted according to the above provisions. After the baseline was stable, 0.2 µL of the sample was injected using a micro-syringe, and the integrator or chromatographic workstation was started at the same time. A pigment concentration-integral area standard curve was established by testing the integral areas of pigments with different concentrations. When the pigment content was measured, the corresponding pigment integral area was automatically given by the instrument, and the pigment concentration was obtained by comparing with the standard curve. The ratio of the pigment concentration to the sample concentration is the pigment content.
# [15] = Tensile properties (GB/T 1040-2006): tensile modulus at 100%, elongation at break, elastic modulus; format: physicochemical; conditions: PVC plastic with 35 parts plasticizer; 50 mm/min, 25°C
# Protocol: as §1
# [16] = Glass transition temperature (dynamic mechanical analyzer); format: physicochemical; conditions: PVC plastic with 35 parts plasticizer; -40 to 80°C, 3°C/min, 1 Hz
# Protocol: as §1
# [17] = system: Aspergillus terreus engineered strains; format: cell-based; conditions: for effect on the yield of trans-Aconitic acid: additionally added at certain doses, shake flask; for increase of the yield of trans-Aconitic acid: 96 hours of shake flask fermentation
# Protocol: Additional supplementation experiments were performed on differential amino acids and vitamins between high-yield and low-yield corn steep liquor powders. Based on the high-yield corn steep liquor powder medium, fermentation verification was performed by adding differential amino acid components and vitamin components separately. Each group was set up with three parallel replicates. After 96 hours of shake flask fermentation, the supernatant of the fermentation broth was collected for quantitative analysis using HPLC detection.
# [18] = PVC plastic: 100 parts PVC resin, 35 parts plasticizer
# [19] = 2.5 g plasticizer and 25 g acetone titrated with deionized water until turbidity, Table 5
Compound,Acid value [11] [KOH/g],Chromaticity [12] [Pt-Co],Water content [13] [%],Residual amounts of fat-soluble pigments [14] [ppm],Residual amounts of water-soluble pigments [14] [ppm],"Hardness/Shore D [1, 18] [Shore D]",Elastic modulus [15] [MPa],Elongation at break [15] [%],Tensile modulus at 100% [15] [MPa],"Compatibility [2, 19] [mL]",Tg [16] [°C],effect on the yield of trans-Aconitic acid [17],further results
"CCCCCCCCOC(=O)c1ccccc1C(=O)OCCCCCCCC [Dioctyl Phthalate, dioctyl phthalate]",–,–,–,–,–,–,–,–,–,–,–,–,"Hardness/Shore D ([1]; composite: 100 parts PVC resin (K value 60, polydispersity index 4), 30 parts plasticizer): 78 Shore D; Compatibility ([2]; water value of the plasticizer, Table 9): 7.1 mL; Volatility loss rate [3]: 0.96%; Water extraction rate [4]: 0.32%; Ethanol extraction rate [5]: 5.13%; Petroleum ether extraction rate [6]: 6.12%; Migration rate to PE [7]: 0.83%; Migration rate to NR [8]: 0.81%; Elastic modulus [9]: 487.3 MPa; Elongation at break [9]: 134.9%; Tensile modulus at 100% [9]: 15.1 MPa; Tg [10]: 48.5 °C"
"CCCCOC(=O)C=C(CC(=O)OCCCC)C(=O)OCCCC [Example 33, tributyl aconitate]",0.05,100,0.04,395,4064,47,204.5,223.7,18.2,11.3,30.8,–,–
"CCCCOC(=O)C=C(CC(=O)OCCCC)C(=O)OCCCC [Example 34, tributyl aconitate]",0.05,50,0.03,428,864,41,77.9,258.1,14.7,16.1,27.7,–,–
"CCCCOC(=O)C=C(CC(=O)OCCCC)C(=O)OCCCC [Example 35, tributyl aconitate]",0.05,300,0.03,3475,5348,55,348.6,173.4,19.8,8.1,38.4,–,–
"CCCCOC(=O)C=C(CC(=O)OCCCC)C(=O)OCCCC [Example 36, tributyl aconitate]",0.05,60,0.04,836,1368,43,137.4,243.4,15.9,13.4,29.7,–,–
NC(=O)CC[C@H](N)C(=O)O [L-glutamine],–,–,–,–,–,–,–,–,–,–,–,varying degrees of decrease,–
NCC(=O)O [L-glycine],–,–,–,–,–,–,–,–,–,–,–,varying degrees of decrease,–
CC[C@H](C)[C@H](N)C(=O)O [L-isoleucine],–,–,–,–,–,–,–,–,–,–,–,varying degrees of decrease,–
CC(C)C[C@H](N)C(=O)O [L-leucine],–,–,–,–,–,–,–,–,–,–,–,–,increase of the yield of trans-Aconitic acid ([17]; addition of 0.125 g/L): 42%
NCCCC[C@H](N)C(=O)O [L-lysine],–,–,–,–,–,–,–,–,–,–,–,varying degrees of decrease,–
O=C(O)[C@@H]1CCCN1 [L-proline],–,–,–,–,–,–,–,–,–,–,–,varying degrees of decrease,–
"O=C(O)CCCC[C@@H]1SC[C@@H]2NC(=O)N[C@@H]21 [biotin-vitamin B7, biotin]",–,–,–,–,–,–,–,–,–,–,–,–,increase of the yield of trans-Aconitic acid ([17]; addition of 0.11 g/L): 17.5%
CC(O)C(=O)O (stereo not shown) [lactic acid],–,–,–,–,–,–,–,–,–,–,–,varying degrees of decrease,–
